Source: patent publication US10253028B2, “Pyrazolo[3,4-D]pyrimidin derivative and its use for the treatment of leishmaniasis” (GlaxoSmithKline Intellectual Property Development Limited, priority 2015, dated 2019)

Columns and labels:
THP-1 cells = assay: Intramacrophage Leishmania donovani assay, cytotoxicity readout (THP-1 cell count); type: cell-based; settings: 72 h incubation with compound; for EC50: Homo sapiens, THP-1, 72 h, read-out: pEC50 value against THP-1 cells (converted)
Experimental: (§1) Intra macrophage Leishmania donovani assay
(§2) The intramacrophage Leishmania assay was performed exactly as described in de Rycker et al (Antimicrob Agents Chemother. 2013 July; 57(7):2913-22. doi: 10.1128/AAC.02398-12. Epub 2013 Apr. 9. Comparison of a high-throughput high-content intracellular Leishmania donovani assay with an axenic amastigote assay. De Rycker M, Hallyburton I, Thomas J, Campbell L, Wyllie S, Joshi D, Cameron S, Gilbert I H, Wyatt P G, Frearson J A, Fairlamb A H, Gray D W.). Briefly, 1 μl of compound was pre-dispensed into 384 well sterile intermediary plates. For single point screening, amphotericin B was added to all wells of column 24 as a positive control (final concentration 2 μM) and DMSO to column 23. For potency determinations, ten-point, one in three dilution curves were created with the highest concentration being 50 μM and on each plate a control curve of amphotericin B was included. Controls were as follows: columns 11 and 12: DMSO, columns 23 and 24: amphotericin B (final concentration 2 μM). To the intermediary plates, 100 μl of THP-1 media was added and plates were shaken for >5 min to ensure complete mixing. THP-1 cells (8,000 per well, 50 μl) were plated into black clear-bottom 384 well plates (Corning) in presence of 10 nM PMA. After 20 min at RT, the plates were incubated at 37° C. under 5% CO2 in a humidified incubator for 75 h. The cells were then washed with 450 μl sterile phosphate buffered saline (PBS) supplemented with 1 mM CaCl2, 0.5 mM MgCl2, 0.1% (w/v) bovine serum albumin (PBS-A) and amastigotes were added to all wells at a multiplicity of infection of 5 (40,000 amastigotes per well). After 40 min at RT, plates were returned to the incubator. Amastigotes were incubated in the presence of macrophages for 16 h. […] For each well, i) THP-1 cell count (cytotoxicity readout) and ii) average number of amastigotes per cell (potency readout) were calculated, both in terms of pEC50 values.

[1] = test system: Leishmania donovani amastigotes; assay: Intramacrophage Leishmania donovani assay, potency readout (average number of amastigotes per cell); type: cell-based; settings: THP-1, 72 h, amastigotes in PMA-differentiated THP-1 macrophages, 72 h incubation with compound, read-out: pEC50 value against amastigotes (converted)
Experimental: as §1
as §2, with “mixing.” for “mixing. THP-1 cells (8,000 per well, 50 μl) were plated into black clear-bottom 384 well plates (Corning) in presence of 10 nM PMA. After 20 min at RT, the plates were incubated at 37° C. under 5% CO2 in a humidified incubator for 75 h. The cells were then washed with 450 μl sterile phosphate buffered saline (PBS) supplemented with 1 mM CaCl2, 0.5 mM MgCl2, 0.1% (w/v) bovine serum albumin (PBS-A) and amastigotes were added to all wells at a multiplicity of infection of 5 (40,000 amastigotes per well). After 40 min at RT, plates were returned to the incubator. Amastigotes were incubated in the presence of macrophages for 16 h.”

Compound	pEC50 value against THP-1 cells (THP-1 cells)	EC50 (THP-1 cells)	EC50 [1]
C[C@H]1CN(c2n[nH]c3nc(NC4CCC(NS(=O)(=O)CCC(F)(F)F)CC4)ncc23)CCO1 (single isomer, unassigned) [Formula (I)]	4.3	≥ 39.8 µM	
C[C@@H]1CN(c2n[nH]c3nc(NC4CCC(NS(=O)(=O)CCC(F)(F)F)CC4)ncc23)CCO1 (single isomer, unassigned) [opposite enantiomer]		≥ 39.8 µM	≤ 5.01 µM
